From a compilation of properties of binary mixtures (doi:10.1007/s10953-012-9875-7)

Assay: xn = mol fraction of the nth substance listed
Conditions: 101 kPa

O + CCCC[n+]1ccn(C)c1.N#C[S-]
x1 = 1
Conditions | viscosity [mPa·s]
308.15 K | 0.74
318.15 K | 0.63
328.15 K | 0.56
348.15 K | 0.46

O + CCCC[n+]1ccc(C)cc1.N#C[S-]
x1 = 1
Conditions | viscosity [mPa·s]
298.15 K | 0.89
308.15 K | 0.74
318.15 K | 0.63
328.15 K | 0.56
338.15 K | 0.5
348.15 K | 0.43

CCCC[n+]1ccn(C)c1.N#C[S-] + O
viscosity [mPa·s]
Conditions | 298.15 K | 308.15 K | 318.15 K | 328.15 K | 338.15 K | 348.15 K
x2 = 0 | 51.74 | 34.9 | 24.2 | – | 12.73 | 9.98
x2 = 0.0998 | 40.2 | 26.9 | 19.1 | – | 10.98 | 8.73
x2 = 0.2007 | – | – | – | 12.2 | 9.53 | 7.61
x2 = 0.3169 | – | 18.1 | – | 10.12 | – | 6.4
x2 = 0.4346 | 19.5 | 13.91 | 10.4 | 8.04 | 6.37 | 5.14
x2 = 0.5296 | 15.17 | 10.96 | 8.29 | 6.44 | – | –
x2 = 0.6426 | 10.8 | 7.95 | 6.05 | – | 3.76 | 3.1
x2 = 0.7201 | 8.27 | 6.14 | – | – | 2.96 | 2.48
x2 = 0.7949 | 5.95 | 4.36 | 3.33 | 2.67 | – | 1.86
x2 = 0.8733 | 3.75 | 2.84 | 2.23 | 1.82 | 1.51 | 1.28
x2 = 0.9444 | 2.02 | 1.58 | 1.27 | 1.05 | 0.9 | 0.78

CCCC[N+]1(C)CCCCC1.N#C[S-] + O
viscosity [mPa·s]
Conditions | x2 = 0 | x2 = 0.2774 | x2 = 0.3741 | x2 = 0.5111 | x2 = 0.6302 | x2 = 0.7172 | x2 = 0.8248 | x2 = 0.9351
318.15 K | 265 | 94.9 | – | 33 | 19.13 | 12.13 | 6.02 | 1.97
328.15 K | 152 | – | – | 22.33 | – | 8.79 | 4.47 | 1.57
338.15 K | 93.5 | – | 25.6 | 15.96 | 9.94 | 6.6 | 3.41 | 1.28
348.15 K | 60.5 | 27.83 | 18.51 | – | 7.6 | 5.08 | 2.71 | 1.07

CCCC[N+]1(C)CCCC1.N#C[S-] + O
viscosity [mPa·s]
Conditions | x2 = 0 | x2 = 0.0853 | x2 = 0.2203 | x2 = 0.3555 | x2 = 0.5252 | x2 = 0.6634 | x2 = 0.783 | x2 = 0.8623 | x2 = 0.9657
298.15 K | 109 | 92 | – | 49.3 | – | 17.6 | – | – | 1.74
308.15 K | 70.4 | 59.4 | 45.2 | 33.2 | – | – | 7.27 | – | –
318.15 K | 47.8 | 40.3 | – | 23.5 | 14.38 | 9.15 | 5.46 | – | –
328.15 K | 34.1 | – | 23 | 17.3 | 10.87 | 7.02 | – | 2.54 | 0.92
338.15 K | – | 21.5 | – | 13.08 | 8.49 | 5.53 | – | 2.02 | –
348.15 K | 19.3 | 16.5 | – | 10.21 | 6.81 | – | 2.65 | 1.67 | –

O + CCCC[N+]1(C)CCCCC1.N#C[S-]
x1 = 1
Conditions | viscosity [mPa·s]
328.15 K | 0.56
338.15 K | 0.5
348.15 K | 0.43

O + CCCC[N+]1(C)CCCC1.N#C[S-]
x1 = 1
Conditions | viscosity [mPa·s]
298.15 K | 0.89
308.15 K | 0.74
318.15 K | 0.63
328.15 K | 0.56
338.15 K | 0.5
348.15 K | 0.43

CCCC[n+]1ccc(C)cc1.N#C[S-] + O
viscosity [mPa·s]
Conditions | 298.15 K | 308.15 K | 318.15 K | 328.15 K | 338.15 K | 348.15 K
x1 = 0.0076 | 1.07 | 0.87 | – | 0.63 | 0.57 | 0.52
x2 = 0 | 86 | 51.75 | – | 23.5 | – | 12.86
x2 = 0.0564 | – | 46 | 30.4 | 21.3 | 15.54 | 11.74
x2 = 0.1655 | 57.6 | 36.4 | 24.6 | 17.5 | – | –
x2 = 0.278 | 43.1 | 28 | 19.3 | 13.95 | 10.49 | 8.18
x2 = 0.3797 | 31.3 | 20.9 | 14.68 | 10.87 | – | 6.62
x2 = 0.4628 | 24.8 | 16.8 | 12.14 | 9.17 | – | 5.73
x2 = 0.5669 | 17.8 | 12.47 | 9.17 | 7.02 | – | –
x2 = 0.6364 | 14.06 | – | 7.48 | 5.78 | 4.58 | 3.69
x2 = 0.7623 | 8.6 | 6.3 | 4.78 | 3.7 | – | 2.44
x2 = 0.8333 | 6.04 | 4.45 | 3.37 | 2.66 | 2.08 | 1.62
x2 = 0.9028 | 3.65 | 2.74 | 2.13 | – | 1.41 | 1.24
x2 = 0.957 | 1.98 | 1.53 | 1.23 | – | 0.86 | –
x2 = 0.9714 | – | – | – | – | – | 0.64
